The record followed here is US11219625B2, “Inhibitors of N-linked glycosylation and methods using same” (YALE UNIVERSITY, priority 2015, dated 2022).

One assay relates to OST. Briefly: 35S metabolic labeling of pSAP and SHBG in Hela cells. The class given is cell-based. Here is the method:
FIGS. 2A-2I illustrate the finding that NGI-1 blocks OST function. FIG. 2A illustrates the western blots of glycosylated luciferase (Luc) after treatment with 1 μM tunicmaycin (Tn) and 10 μM NGI-1 in CHO-Lec15 and CHO-Lec35 cells with stable expression of ER-LucT. FIG. 2B is a […] illustrating FACE analysis of lipid linked oligosaccharides (LLOs). FIG. 2C is a series of western blots illustrating the effects of NGI-1 (5 μM) on free oligosaccharides (left panel) and N-linked glycans cleaved from peptides with Peptide-N-Glycosidase F (right panel). Carbohydrate size is indicated with glucose markers (G4-G7). FIG. 2D is a western blot illustrating cell free inhibition of the OST using a rabbit reticulocyte lysate translation system supplemented with canine pancreas rough microsomes (cRM). Saposin-DDK-His6 mRNA was translated for 60 min in the presence of ^35S methionine and the indicated concentration of NGI-1 or Tn. […] FIG. 2E comprises a series of western blots illustrating results from NGI-1 compared to siRNA knockdown of STT3A or STT3B. Glycoforms are represented by 0-5n and 0-2n respectively and average number of glycans per sample is reported for each condition. NC=non-coding siRNA, EH=endoglycosidase H treated. […] FIGS. 2G-2H: Dose response and quantitation of NGI-1 effect on pSAP (squares) and SHBG glycosylation (circles). […]

The next assay deals with A549 cells. Briefly: Cell cycle distribution by flow cytometry, A549. The class given is cell-based. The conditions noted are these: A549, NGI-1 24 h. Here is the method:
FIGS. 5A-5G illustrate NGI-1 induces G1 arrest and senescence in EGFR addicted tumor cells. FIG. 5A illustrates cell cycle distribution of PC9 cells after 24 h NGI-1 treatment for 24 h determined by flow cytometry. […] FIG. 5B illustrates cell cycle distribution of A549 cells after 24 h NGI-1 treatment for 24 h determined by flow cytometry. FIG. 5C illustrates western blot time course of cyclin D1 expression in PC9 and A549 cells after NGI-1 treatment. FIG. 5D illustrates quantitative real-time PCR analysis of PC9 and A549 cells. A time course of cyclin D1 expression levels relative to GAPDH is represented. […] FIG. 5F illustrates senescence of PC9 cells explored by: cell autofluorescence, measured by flow cytometry using a detector for PE/YFP; lipofuscin accumulation, detected by confocal laser scanning microscopy using an excitation laser of 405 nm with acquired signals from spectrums of yellow 575-620 nm; and morphology changes, enlarged vs. flattened. […] Significance was calculated using a T test (*p<0.05. **p<0.01). FIG. 5G illustrates senescence of A549 cells explored by: cell autofluorescence, measured by flow cytometry using a detector for PE/YFP; lipofuscin accumulation, detected by confocal laser scanning microscopy using an excitation laser of 405 nm with acquired signals from spectrums of yellow 575-620 nm; and morphology changes, enlarged vs. flattened. […]

Each structure is given as a SMILES string.

As to `Cc1cnc(NC(=O)c2cc(S(=O)(=O)N(C)C)ccc2N2CCCC2)s1` [NGI-1, 5-(N,N-Dimethylsulfamoyl)-N-(5-methylthiazol-2-yl)-2-(pyrrolidin-1-yl)benzamide], the “glycosylation of pSAP and SHBG sites” value with OST (10 μM NGI-1, 24 h, compared to STT3A/STT3B knockdown) is “reduced glycosylation of all sites on pSAP and SHBG”. Further, the “reversibility of OST inhibition” value in the assay on OST (NGI-1 24 h prior to, during 20 min labeling, or both) is “reversible OST inhibitor”. Also, the cell cycle distribution entry with A549 cells is on record as “did not significantly change the cell cycle distribution”.
